A short description of test [1]: Agonistic models of in vivo estrogenicity (bone resorption, hot flushing, vaginal cornification), previous studies. The note with it: for in vivo estrogenicity in preventing bone resorption, prevention of hot flushing and vaginal cornification: 0.125 mg/kg/day EE compared with […] E4; for potency in agonistic models of preventing bone resorption, prevention of hot flushing and vaginal cornification: […] EE compared with 0.5 mg/kg/day E4.

Test [2] has as its system DMH-induced malignant colon tumours. Description: 1,2 dimethylhydrazine (DMH)-induced colon cancer in ovariectomized female rats. The conditions noted are these: estetrol orally 0.1 to 3.0 mg/kg/day; necropsy 15 weeks after first DMH. It counts as in vivo, rat. As to the method:
A study is performed to examine the effect of estetrol on 1,2 dimethylhydrazine (DMH)-induced colon cancer in ovariectomized female rats.
DMH-induced cancer development is chosen as a model of “estrogen-suppressed tumours”, because it mimics the human situation of colon carcinomas closely:
One week prior to induction of colon carcinomas, fifty sexually mature female Sprague-Dawley rats, weighing between 150 and 200 gram (Harlan, The Netherlands), are surgically castrated via removal of the ovaries. During the experiment, rats are maintained in separate plastic cages at 12 hour light/dark cycles and allowed free access to food (Purina chow) and water.
Animals are randomly allocated to one of five groups, each consisting of 10 rats, which, starting three days after ovariectomy and ending at autopsy, receive placebo or estetrol treatment during the experiment as follows: • Group 1 animals receiving placebo oral treatment with 3.0 ml/kg/day vehicle (20% wt/vol solution of hydroxypropyl-beta-cyclodextrin in water); • Group 2 animals receiving estetrol orally at a single daily dose of 0.1 mg/kg; • Group 3 animals receiving estetrol orally at a single daily dose of 0.3 mg/kg; • Group 4 animals receiving estetrol orally at a single daily dose of 1.0 mg/kg; • Group 5 animals receiving estetrol orally at a single daily dose of 3.0 mg/kg. […]

Test [3] has as its system DMBA-induced mammary tumours. Put plainly: 7,12-dimethyl-benz(a)anthracene (DMBA)-induced tumour model in rats. It is filed as in vivo, rat. The procedure: In order to further assess the anti-tumour efficacy of the estrogenic substances of the present invention, estetrol was tested in the 7,12-dimethyl-benz(a)anthracene (DMBA)-induced tumour model in rats. This model, originally developed by Huggins et al., 1961 (Nature, 19, 204-207), has been widely used and is a generally accepted model with predictive value for anti-tumour agents in humans.
Eighty-four female Sprague-Dawley rats (Harlan, The Netherlands) were group housed, maintained in a 12-hr light/dark environment, and fed a Soya Free Diet (SDS England) and water ad libitum. Animals were weighed on a weekly basis. One week prior to induction of mammary carcinoma, 12 animals (aged 43 days) were surgically castrated via removal of the ovaries. At the age of 50 days, all animals were administered a single oral dose of 16 mg DMBA to induce tumour development. […]
During the treatment period of 8 weeks, the emergence of palpable tumours and number of tumours were determined weekly. […]

A further test has as its target human ERα (Homo sapiens (Human), UniProt P03372). Description: Competitive steroid binding assay, ERα. The note with it: preference for binding to ERα protein over ERβ, from Ki values.
In test [4] the test system is DMBA-induced mammary tumours. The note with it: literature; cited from earlier work.
For test [5], the system named is DMH-induced malignant colon tumours. The note with it: previously published; cited from earlier work.

human ERα, sequence (P03372 whole entry): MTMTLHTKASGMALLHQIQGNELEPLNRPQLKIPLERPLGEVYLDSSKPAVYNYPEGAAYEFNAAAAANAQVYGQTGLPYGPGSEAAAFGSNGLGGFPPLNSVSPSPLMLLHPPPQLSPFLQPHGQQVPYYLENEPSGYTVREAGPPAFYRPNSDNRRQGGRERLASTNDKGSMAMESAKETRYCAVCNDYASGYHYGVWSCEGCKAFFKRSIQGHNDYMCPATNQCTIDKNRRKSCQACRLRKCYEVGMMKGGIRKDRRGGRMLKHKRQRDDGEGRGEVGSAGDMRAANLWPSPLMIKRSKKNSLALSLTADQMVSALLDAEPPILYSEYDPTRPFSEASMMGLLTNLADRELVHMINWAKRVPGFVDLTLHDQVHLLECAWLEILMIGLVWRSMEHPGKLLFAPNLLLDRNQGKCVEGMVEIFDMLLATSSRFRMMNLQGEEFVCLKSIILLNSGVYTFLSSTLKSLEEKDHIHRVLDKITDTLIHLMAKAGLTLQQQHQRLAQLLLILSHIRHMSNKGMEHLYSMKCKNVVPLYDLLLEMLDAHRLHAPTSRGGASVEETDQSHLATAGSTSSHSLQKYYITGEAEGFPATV

Turning to `C#C[C@]1(O)CC[C@H]2[C@@H]3CCc4cc(O)ccc4[C@H]3CC[C@@]21C` [EE, 17α-ethinylestradiol], in test [1], the “in vivo estrogenicity in preventing bone resorption, prevention of hot flushing and vaginal cornification” value is given as “equipotency”; the “potency in agonistic models of preventing bone resorption, prevention of hot flushing and vaginal cornification” value is listed as “equipotency”.
Turning to `C[C@]12CC[C@@H]3c4ccc(O)cc4CC[C@H]3[C@@H]1[C@@H](O)[C@@H](O)[C@@H]2O` [E4, 1,3,5(10)-estratrien-3,15α,16α,17β-tetrol], the “number of malignant tumours” value in test [2] is given as “declines as a function of increasing the daily oral estetrol dose”. The “preventing growth of DMBA-induced tumours, compared with tamoxifen” value in test [3] (E4 […] vs tamoxifen 3 mg/kg/day orally) is listed as “as effective as tamoxifen”. Also, in test [1], the “in vivo estrogenicity in preventing bone resorption, prevention of hot flushing and vaginal cornification” value is recorded as “equipotency”; the “potency in agonistic models of preventing bone resorption, prevention of hot flushing and vaginal cornification” value is “equipotency”. The “Relative ERα/ERβ preference” value at human ERα came out at 400%.
Consider `CC/C(=C(\c1ccccc1)c1ccc(OCCN(C)C)cc1)c1ccccc1` [tamoxifen], for which the “development of mammary tumours” value in test [3] (tamoxifen 3 mg/kg/day orally, 8 weeks) is “inhibiting the development of mammary tumours”. Also, the “anti-tumour treatment in the DMBA model” value in test [4] is given as “effective anti-tumour treatments”.
Take `C[C@]12CC[C@@H]3c4ccc(O)cc4CC[C@H]3[C@@H]1CC[C@@H]2O` [E2, 17β-estradiol]: the “protection in the DMH model” value in test [5] was “confers protection”.
